Holding throughout (type): functional
In experiment [1] the test system is Staphylococcus aureus. Briefly: Antimicrobial activity against Staphylococcus aureus ATCC 25923 assessed as inhibition of microbial growth incubated for 24 hrs by broth dilution method. On the technique in general: In broth dilution the organism is exposed to a series of concentrations in liquid medium.
Experiment [2] has as its system Candida albicans. Briefly: Antimicrobial activity against Candida albicans ATCC 10231 assessed as inhibition of microbial growth incubated for 72 hrs by broth dilution method. The conditions noted are these: ATCC 10231, 72 h.
Experiment [3] concerns Escherichia coli. As to the kind of experiment: Antimicrobial activity against Escherichia coli ATCC 10536 assessed as inhibition of microbial growth incubated for 24 hrs by broth dilution method.
Experiment [4] relates to Candida tropicalis. As to the kind of experiment: Antimicrobial activity against Candida tropicalis ATCC 750 assessed as inhibition of microbial growth incubated for 72 hrs by broth dilution method. To be noted: ATCC 750, 72 h.
For experiment [5], the system named is Pseudomonas aeruginosa. As to the kind of experiment: Antimicrobial activity against Pseudomonas aeruginosa ATCC 10145 assessed as inhibition of microbial growth incubated for 24 hrs by broth dilution method.
In experiment [6] the test system is Bacillus subtilis. Briefly: Antimicrobial activity against Bacillus subtilis ATCC 6633 assessed as inhibition of microbial growth incubated for 24 hrs by broth dilution method.
Experiment [7] relates to Klebsiella pneumoniae. Briefly: Antimicrobial activity against Klebsiella pneumoniae ATCC 10031 assessed as inhibition of microbial growth incubated for 24 hrs by broth dilution method.
Experiment [8] relates to Pseudomonas aeruginosa. As to the kind of experiment: Bactericidal activity against Pseudomonas aeruginosa ATCC 10145 assessed as microbial killing during 18 hrs post sub-culture onto drug-free solid media by broth dilution method. To be noted: ATCC 10145, 18 h, read-out: MBC99.9.
Experiment [9] deals with Escherichia coli. Briefly: Bactericidal activity against Escherichia coli ATCC 10536 assessed as microbial killing during 18 hrs post sub-culture onto drug-free solid media by broth dilution method. To be noted: ATCC 10536, 18 h, read-out: MBC99.9.
Experiment [10] has as its system Staphylococcus aureus. As to the kind of experiment: Bactericidal activity against Staphylococcus aureus ATCC 25923 assessed as microbial killing during 18 hrs post sub-culture onto drug-free solid media by broth dilution method. To be noted: ATCC 25923, 18 h, read-out: MBC99.9.
In experiment [11] the test system is Bacillus subtilis. Briefly: Bactericidal activity against Bacillus subtilis ATCC 6633 assessed as microbial killing during 18 hrs post sub-culture onto drug-free solid media by broth dilution method. The conditions noted are these: ATCC 6633, 18 h, read-out: MBC99.9.

≈ marks a conversion by molar mass, not a printed value. Bounds are passed on as bounds.

Broadly, the MIC is the least concentration at which growth counts as inhibited. Turning to `O=c1c(O)c(-c2ccccc2O)oc2ccc(Br)cc12`, the MIC in experiment [1] (ATCC 25923, 24 h) was 0.152 µM; in [2], over 0.602 µM; in experiment [3] (ATCC 10536, 24 h), 0.135 µM; in [4], over 0.602 µM; in [5] (ATCC 10145, 24 h), 0.12 µM; in [6] (ATCC 6633, 24 h), 0.167 µM. The MIC in experiment [7] (ATCC 10031, 24 h) stood at 0.135 µM.
`O=c1c2c(oc3ccc(Cl)cc13)-c1ccccc1OCCO2`: the MIC in experiment [1] (ATCC 25923, 24 h) is 0.033 µM; in [2] it was over 0.636 µM; in experiment [3] (ATCC 10536, 24 h) it was 0.047 µM; in [4] it was over 0.636 µM; in [5] (ATCC 10145, 24 h) it was 0.063 µM; in [6] (ATCC 6633, 24 h), 0.065 µM. For the same molecule, the MIC in experiment [7] (ATCC 10031, 24 h) was determined as 0.047 µM. Further, the MBC in experiment [8] is 0.063 µM (≈ 0.0198 µg/mL); in [9], 0.027 µM (≈ 0.0085 µg/mL); in [10], 0.033 µM (≈ 0.0104 µg/mL); in experiment [11] it was 0.035 µM (≈ 0.011 µg/mL).
Turning to `O=c1c(O)c(-c2ccccc2O)oc2ccccc12`, the MIC was 0.198 µM in experiment [1] (ATCC 25923, 24 h); over 0.787 µM in [2]; 0.177 µM in experiment [3] (ATCC 10536, 24 h); over 0.787 µM in experiment [4]; 0.157 µM in experiment [5] (ATCC 10145, 24 h); 0.218 µM in experiment [6] (ATCC 6633, 24 h). Also, the MIC in experiment [7] (ATCC 10031, 24 h) worked out at 0.177 µM.
As to GENTAMICIN SULFATE, the MIC in experiment [1], in [3], in [5], in [6] and in [7] was under 0.017 µM each time.
As for `O=c1c2c(oc3ccc(F)cc13)-c1ccccc1OCCCCO2`, the MIC in [1] (ATCC 25923, 24 h) was 0.153 µM; in [2], over 0.613 µM; in [3] (ATCC 10536, 24 h) it was 0.062 µM; in [4], over 0.613 µM; in [5] (ATCC 10145, 24 h), 0.076 µM; in experiment [6] (ATCC 6633, 24 h) it was 0.092 µM. The MIC in experiment [7] (ATCC 10031, 24 h) stood at 0.046 µM. The MBC in experiment [8] came to 0.03 µM (≈ 0.00979 µg/mL); in [9] it was 0.055 µM (≈ 0.0179 µg/mL); in experiment [10], 0.081 µM (≈ 0.0264 µg/mL); in experiment [11], 0.04 µM (≈ 0.0131 µg/mL).
As for `O=c1c(O)c(-c2ccccc2O)oc2ccc(Cl)cc12`, the MIC was 0.19 µM in experiment [1] (ATCC 25923, 24 h); over 0.694 µM in experiment [2]; 0.14 µM in [3] (ATCC 10536, 24 h); over 0.694 µM in experiment [4]; 0.157 µM in experiment [5] (ATCC 10145, 24 h); 0.173 µM in experiment [6] (ATCC 6633, 24 h). Also, in [7] (ATCC 10031, 24 h), the MIC came out at 0.138 µM.
In the case of `O=c1c2c(oc3ccc(Br)cc13)-c1ccccc1OCCO2`, the MIC in [1] (ATCC 25923, 24 h) was 0.027 µM; in experiment [2], over 0.558 µM; in [3] (ATCC 10536, 24 h), 0.097 µM; in [4], over 0.558 µM; in experiment [5] (ATCC 10145, 24 h), 0.097 µM; in experiment [6] (ATCC 6633, 24 h), 0.027 µM. In experiment [7] (ATCC 10031, 24 h), the MIC stood at 0.083 µM. For the same molecule, the MBC in [8] stood at 0.061 µM (≈ 0.0219 µg/mL); in experiment [9], 0.061 µM (≈ 0.0219 µg/mL); in [10], 0.023 µM (≈ 0.00826 µg/mL); in experiment [11] it was 0.023 µM (≈ 0.00826 µg/mL).
`O=c1c2c(oc3ccccc13)-c1ccccc1OCCO2`: the MIC is 0.142 µM in [1] (ATCC 25923, 24 h); over 0.714 µM in [2]; 0.108 µM in [3] (ATCC 10536, 24 h); over 0.714 µM in [4]; 0.125 µM in experiment [5] (ATCC 10145, 24 h); 0.071 µM in experiment [6] (ATCC 6633, 24 h). For the same molecule, the MIC in [7] (ATCC 10031, 24 h) was 0.107 µM. Also, the MBC in experiment [8] amounted to 0.071 µM (≈ 0.0199 µg/mL); in experiment [9] it was 0.085 µM (≈ 0.0238 µg/mL); in experiment [10], 0.142 µM (≈ 0.0398 µg/mL); in [11], 0.071 µM (≈ 0.0199 µg/mL).
`O=c1c2c(oc3ccccc13)-c1ccccc1OCCCCCO2`: the MIC was 0.155 µM in [1] (ATCC 25923, 24 h); over 0.621 µM in experiment [2]; 0.063 µM in [3] (ATCC 10536, 24 h); over 0.621 µM in [4]; 0.062 µM in [5] (ATCC 10145, 24 h); 0.186 µM in experiment [6] (ATCC 6633, 24 h). The MIC in experiment [7] (ATCC 10031, 24 h) was determined as 0.077 µM. For the same molecule, the MBC in experiment [8] was 0.089 µM (≈ 0.0287 µg/mL); in experiment [9] it was 0.059 µM (≈ 0.019 µg/mL); in experiment [10], 0.154 µM (≈ 0.0496 µg/mL); in experiment [11] it was 0.159 µM (≈ 0.0513 µg/mL).
As to `O=c1c2c(oc3ccc(Br)cc13)-c1ccccc1OCCCO2`, the MIC in experiment [1] (ATCC 25923, 24 h) is 0.053 µM; in experiment [2], over 0.537 µM; in experiment [3] (ATCC 10536, 24 h) it was 0.032 µM; in experiment [4], over 0.537 µM; in experiment [5] (ATCC 10145, 24 h), 0.04 µM; in experiment [6] (ATCC 6633, 24 h), 0.04 µM. Further, the MIC in experiment [7] (ATCC 10031, 24 h) came to 0.026 µM. Further, the MBC stood at 0.037 µM (≈ 0.0138 µg/mL) in experiment [8], 0.027 µM (≈ 0.0101 µg/mL) in experiment [9], 0.025 µM (≈ 0.00933 µg/mL) in experiment [10] and 0.025 µM (≈ 0.00933 µg/mL) in experiment [11].

Source of the values: ChEMBL document CHEMBL3392983, “Synthesis, antimicrobial activity and molecular docking of novel tetracyclic scaffolds incorporating a flavonoid framework with medium sized oxygen heterocycles” (2015).
